Experimental data taken from patent US20220117266A1, “NICKEL CHELATION THERAPY” (priority 2019, published 2022).

Columns and labels:
[1] = tested on: MDR K. pneumoniae (ATCC BAA2472); assay: DMG growth inhibition in liquid culture (CFU/mL); assay type: cell-based, Klebsiella pneumoniae
Experimental: Growth conditions. All strains were routinely grown on LB agar plates or in LB broth. For DMG-growth inhibition study, S. Typhimurium strains ATCC 14028 and ATCC 700408 were grown in M9 minimal medium (M9 minimal salts, 0.4% glucose, 2 mM MgSO4, 0.1 mM CaCl2), and 1 μg/mL thiamine, pH 7.2). K. pneumoniae was grown in “W-U” medium, modified from Bender et al. 1977 129:1001-1009, containing 60 mM K2HPO4, 33 mM KH2PO4, 0.4 mM MgSO4, 0.4% Glucose, and 5 mM urea (instead of KNO3), pH 7.4. Briefly, overnight cultures of S. Typhimurium and K. pneumoniae were harvested, spun at 14,000 rpm for five minutes, washed once with either M9 (S. Typhimurium) or W-U (K. pneumoniae) and resuspended in either M9 (S. Typhimurium) or W-U (K. pneumoniae). […] Cells were incubated for 24 hours at 37° C. with shaking at 250 rpm, then serially diluted in PBS and 5 μL of each dilution was spotted in triplicate on LB plate. Colony forming units (CFU) were counted after 16 hours at 37° C. Each growth experiment was done at least three times.

C. jejuni 81-176 = assay: Growth inhibition, liquid 96-well checkerboard (OD600, MIC, MBC); assay type: cell-based, Campylobacter jejuni; conditions: 24 h
Experimental: Growth inhibition assays: liquid (96-well) plates experiments. This type of experiment can only be conducted with C. jejuni since the gas requirement for C. concisus (H2-enriched microaerobic) is not compatible with the use of 96-well plates. C. jejuni cells were grown as described above, harvested, and resuspended in sterile NaCl (8 g/L) to an OD600 of 0.1, corresponding approximately to 5×10^8 to 1×10^9 cells/mL. […] Wells were serially (2-fold) diluted in each direction (horizontal and vertical) to introduce all combinations. Wells with no DMG or metal compounds served as (positive) growth controls, and wells with no bacteria served as background (negative growth) controls. A typical protocol and loading plan are described in Table 7. The starting inoculum was at OD600 of 0.05, which corresponds approximately to 2.5×10^8 cells/mL to 5×10^8 cells/mL. After 24 hours incubation under microaerobic conditions at 37° C., OD600 was recorded using a 96 well-plate reader (Microtek). […] Resulting growth (or lack of growth) was examined after overnight culturing; the lowest concentration that inhibits 99.9% of the original culture was defined as MBC. MIC and MBC were determined based on tests (plates) done in triplicate.

For `CC(=NO)C(C)=NO` [DMG, dimethylglyoxime], the “effect on bacterial growth” value ([1]; DMG at 2.5 mM, 5 mM, or 7.5 mM) was “no measurable effect”, the inhibition at 10000 µM ([1]; Klebsiella pneumoniae, ATCCBAA2472, 24 h) was over 100% and the OD600 (C. jejuni 81-176; DMG 0.062 mM + CuSO4 0 uM) was 0.31. It also gave an OD600 (C. jejuni 81-176; DMG 0.062 mM + CuSO4 2 uM) of 0.37, an OD600 (C. jejuni 81-176; DMG 0.062 mM + CuSO4 4 uM) of 0.31 and an OD600 (C. jejuni 81-176; DMG 0.062 mM + CuSO4 8 uM) of 0.33. It also gave an OD600 (C. jejuni 81-176; DMG 0.062 mM + CuSO4 16 uM) of 0.34, an OD600 (C. jejuni 81-176; DMG 0.062 mM + CuSO4 32 uM) of 0.24 and an OD600 (C. jejuni 81-176; DMG 0.062 mM + CuSO4 64 uM) of 0.22. For the same compound, the OD600 (C. jejuni 81-176; DMG 0.062 mM + CuSO4 128 uM) was 0.24, the OD600 (C. jejuni 81-176; DMG 0.062 mM + CuSO4 256 uM) was 0.35 and the OD600 (C. jejuni 81-176; DMG 0.062 mM + CuSO4 512 uM) was 0.34. It also gave an OD600 (C. jejuni 81-176; DMG 0.062 mM + CuSO4 1024 uM) of 0.47, an OD600 (C. jejuni 81-176; DMG 0.125 mM + CuSO4 0 uM) of 0.25 and an OD600 (C. jejuni 81-176; DMG 0.125 mM + CuSO4 2 uM) of 0.31. For the same compound, the OD600 (C. jejuni 81-176; DMG 0.125 mM + CuSO4 4 uM) was 0.27, the OD600 (C. jejuni 81-176; DMG 0.125 mM + CuSO4 8 uM) was 0.31 and the OD600 (C. jejuni 81-176; DMG 0.125 mM + CuSO4 16 uM) was 0.33. For the same compound, the OD600 (C. jejuni 81-176; DMG 0.125 mM + CuSO4 32 uM) was 0.26, the OD600 (C. jejuni 81-176; DMG 0.125 mM + CuSO4 64 uM) was 0.23 and the OD600 (C. jejuni 81-176; DMG 0.125 mM + CuSO4 128 uM) was 0.24. The OD600 (C. jejuni 81-176; DMG 0.125 mM + CuSO4 256 uM) was 0.27, the OD600 (C. jejuni 81-176; DMG 0.125 mM + CuSO4 512 uM) was 0.34 and the OD600 (C. jejuni 81-176; DMG 0.125 mM + CuSO4 1024 uM) was 0.47. It also gave an OD600 (C. jejuni 81-176; DMG 0.25 mM + CuSO4 0 uM) of 0.26, an OD600 (C. jejuni 81-176; DMG 0.25 mM + CuSO4 2 uM) of 0.31 and an OD600 (C. jejuni 81-176; DMG 0.25 mM + CuSO4 4 uM) of 0.24. It also gave an OD600 (C. jejuni 81-176; DMG 0.25 mM + CuSO4 8 uM) of 0.37, an OD600 (C. jejuni 81-176; DMG 0.25 mM + CuSO4 16 uM) of 0.33 and an OD600 (C. jejuni 81-176; DMG 0.25 mM + CuSO4 32 uM) of 0.25. For the same compound, the OD600 (C. jejuni 81-176; DMG 0.25 mM + CuSO4 64 uM) was 0.22, the OD600 (C. jejuni 81-176; DMG 0.25 mM + CuSO4 128 uM) was 0.24 and the OD600 (C. jejuni 81-176; DMG 0.25 mM + CuSO4 256 uM) was 0.24. It also gave an OD600 (C. jejuni 81-176; DMG 0.25 mM + CuSO4 512 uM) of 0.27, an OD600 (C. jejuni 81-176; DMG 0.25 mM + CuSO4 1024 uM) of 0.30 and an OD600 (C. jejuni 81-176; DMG 0.5 mM + CuSO4 0 uM) of 0.22. For the same compound, the OD600 (C. jejuni 81-176; DMG 0.5 mM + CuSO4 2 uM) was 0.31, the OD600 (C. jejuni 81-176; DMG 0.5 mM + CuSO4 4 uM) was 0.25 and the OD600 (C. jejuni 81-176; DMG 0.5 mM + CuSO4 8 uM) was 0.23. The OD600 (C. jejuni 81-176; DMG 0.5 mM + CuSO4 16 uM) was 0.34, the OD600 (C. jejuni 81-176; DMG 0.5 mM + CuSO4 32 uM) was 0.21 and the OD600 (C. jejuni 81-176; DMG 0.5 mM + CuSO4 64 uM) was 0.19. The OD600 (C. jejuni 81-176; DMG 0.5 mM + CuSO4 128 uM) was 0.20, the OD600 (C. jejuni 81-176; DMG 0.5 mM + CuSO4 256 uM) was 0.29 and the OD600 (C. jejuni 81-176; DMG 0.5 mM + CuSO4 512 uM) was 0.14. For the same compound, the OD600 (C. jejuni 81-176; DMG 0.5 mM + CuSO4 1024 uM) was 0.09, the OD600 (C. jejuni 81-176; DMG 1 mM + CuSO4 0 uM) was 0.20 and the OD600 (C. jejuni 81-176; DMG 1 mM + CuSO4 2 uM) was 0.27. For the same compound, the OD600 (C. jejuni 81-176; DMG 1 mM + CuSO4 4 uM) was 0.23, the OD600 (C. jejuni 81-176; DMG 1 mM + CuSO4 8 uM) was 0.21 and the OD600 (C. jejuni 81-176; DMG 1 mM + CuSO4 16 uM) was 0.37. The OD600 (C. jejuni 81-176; DMG 1 mM + CuSO4 32 uM) was 0.24, the OD600 (C. jejuni 81-176; DMG 1 mM + CuSO4 64 uM) was 0.19 and the OD600 (C. jejuni 81-176; DMG 1 mM + CuSO4 128 uM) was 0.10. For the same compound, the OD600 (C. jejuni 81-176; DMG 1 mM + CuSO4 256 uM) was 0.02, the OD600 (C. jejuni 81-176; DMG 1 mM + CuSO4 512 uM) was 0.02 and the OD600 (C. jejuni 81-176; DMG 1 mM + CuSO4 1024 uM) was 0.04. The OD600 (C. jejuni 81-176; DMG 2 mM + CuSO4 0 uM) was 0.24, the OD600 (C. jejuni 81-176; DMG 2 mM + CuSO4 2 uM) was 0.34 and the OD600 (C. jejuni 81-176; DMG 2 mM + CuSO4 4 uM) was 0.25. The OD600 (C. jejuni 81-176; DMG 2 mM + CuSO4 8 uM) was 0.26, the OD600 (C. jejuni 81-176; DMG 2 mM + CuSO4 16 uM) was 0.24 and the OD600 (C. jejuni 81-176; DMG 2 mM + CuSO4 32 uM) was 0.17. The OD600 (C. jejuni 81-176; DMG 2 mM + CuSO4 64 uM) was 0.01, the OD600 (C. jejuni 81-176; DMG 2 mM + CuSO4 128 uM) was 0.01 and the OD600 (C. jejuni 81-176; DMG 2 mM + CuSO4 256 uM) was 0.01. For the same compound, the OD600 (C. jejuni 81-176; DMG 2 mM + CuSO4 512 uM) was 0.02, the OD600 (C. jejuni 81-176; DMG 2 mM + CuSO4 1024 uM) was 0.04 and the OD600 (C. jejuni 81-176; DMG 4 mM + CuSO4 0 uM) was 0.19. It also gave an OD600 (C. jejuni 81-176; DMG 4 mM + CuSO4 2 uM) of 0.26, an OD600 (C. jejuni 81-176; DMG 4 mM + CuSO4 4 uM) of 0.15 and an OD600 (C. jejuni 81-176; DMG 4 mM + CuSO4 8 uM) of 0.04. The OD600 (C. jejuni 81-176; DMG 4 mM + CuSO4 16 uM) was 0.00, the OD600 (C. jejuni 81-176; DMG 4 mM + CuSO4 32 uM) was 0.00 and the OD600 (C. jejuni 81-176; DMG 4 mM + CuSO4 64 uM) was 0.01. It also gave an OD600 (C. jejuni 81-176; DMG 4 mM + CuSO4 128 uM) of 0.01, an OD600 (C. jejuni 81-176; DMG 4 mM + CuSO4 256 uM) of 0.02 and an OD600 (C. jejuni 81-176; DMG 4 mM + CuSO4 512 uM) of 0.02. The OD600 (C. jejuni 81-176; DMG 4 mM + CuSO4 1024 uM) was 0.04.
